Reference: PubChem BioAssay AID248 (DTP/NCI, 2004)
Inconclusive results and toxic doses are left out. Rule as the data show it: active = T/C of 150% or more; inactive = T/C below 125%.

Test system: L1210 leukemia ip in BDF1 mice, survival T/C
Test: NCI In Vivo Anticancer Drug Screen. Data for tumor model L1210 Leukemia (intraperitoneal) in B6D2F1 (BDF1) mice
Conditions: endpoint: mean survival time, higher = longer survival
How it was run: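 Transplantable tumor model; survival measured in treated vs vehicle control mice. Value = treated/control.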

[1] = dose: 100.0 mg/kg/injection, schedule: Q01DX009 (ip), vehicle: Klucel (hydroxypropylcellulose) (HPC)
[2] = dose: 200.0 mg/kg/injection, schedule: Q01DX009 (ip), vehicle: Klucel (hydroxypropylcellulose) (HPC)
[3] = dose: 400.0 mg/kg/injection, schedule: Q01DX009 (ip), vehicle: Klucel (hydroxypropylcellulose) (HPC)
[4] = dose: 50.0 mg/kg/injection, schedule: Q01DX001 (ip), vehicle: saline
[5] = dose: 100.0 mg/kg/injection, schedule: Q01DX001 (ip), vehicle: saline
[6] = dose: 100.0 mg/kg/injection, schedule: Q01DX001 (ip), vehicle: Klucel (hydroxypropylcellulose) (HPC)
[7] = dose: 200.0 mg/kg/injection, schedule: Q01DX001 (ip), vehicle: Klucel (hydroxypropylcellulose) (HPC)
[8] = dose: 400.0 mg/kg/injection, schedule: Q01DX001 (ip), vehicle: Klucel (hydroxypropylcellulose) (HPC)
[9] = dose: 100.0 mg/kg/injection, schedule: Q04DX002 (ip), vehicle: Klucel (hydroxypropylcellulose) (HPC)
[10] = dose: 200.0 mg/kg/injection, schedule: Q04DX002 (ip), vehicle: Klucel (hydroxypropylcellulose) (HPC)
[11] = dose: 400.0 mg/kg/injection, schedule: Q04DX002 (ip), vehicle: Klucel (hydroxypropylcellulose) (HPC)
[12] = dose: 100.0 mg/kg/injection, schedule: Q04DX003 (ip), vehicle: Klucel (hydroxypropylcellulose) (HPC)
[13] = dose: 200.0 mg/kg/injection, schedule: Q04DX003 (ip), vehicle: Klucel (hydroxypropylcellulose) (HPC)
[14] = dose: 400.0 mg/kg/injection, schedule: Q04DX003 (ip), vehicle: Klucel (hydroxypropylcellulose) (HPC)
[15] = dose: 100.0 mg/kg/injection, schedule: Q04DX003 (ip), vehicle: saline with Tween-80
[16] = dose: 200.0 mg/kg/injection, schedule: Q04DX003 (ip), vehicle: saline with Tween-80
[17] = dose: 200.0 mg/kg/injection, schedule: Q01DX001 (ip), vehicle: saline
[18] = dose: 400.0 mg/kg/injection, schedule: Q01DX001 (ip), vehicle: saline
[19] = dose: 100.0 mg/kg/injection, schedule: Q01DX001 (ip), vehicle: saline with Tween-80
[20] = dose: 200.0 mg/kg/injection, schedule: Q01DX001 (ip), vehicle: saline with Tween-80
[21] = dose: 400.0 mg/kg/injection, schedule: Q01DX001 (ip), vehicle: saline with Tween-80

Measured: T/C

O=[N+]([O-])c1ccc(NC(=S)NS(=O)(=O)c2ccccc2)c(Cl)c1
inactive: [1] 97 % of control | [2] 97 % of control | [3] 88 % of control

S=P1(c2ccccc2)Nc2cc(Cl)ccc2S1 (stereo not given)
inactive: [4] 105 % of control | [5] 106 % of control

COc1ccc(-c2cnc(=S)[nH]c2N)cc1
inactive: [6] 116 % of control | [7] 121 % of control | [8] 119 % of control

CN(C)CCOC(=O)c1ccc(CCl)cc1
inactive: dose: 87.5 mg/kg/injection, schedule: Q01DX009 (ip), vehicle: saline 87 % of control | dose: 175.0 mg/kg/injection, schedule: Q01DX009 (ip), vehicle: saline 101 % of control

O=Cc1cccc(OCc2cccc([N+](=O)[O-])c2)c1
inactive: [1] 98 % of control | [9] 108 % of control | dose: 100.0 mg/kg/injection, schedule: Q04DX002 (ip), vehicle: saline 102 % of control | [2] 102 % of control | [10] 105 % of control | dose: 200.0 mg/kg/injection, schedule: Q04DX002 (ip), vehicle: saline 97 % of control | [3] 95 % of control | [11] 97 % of control | dose: 400.0 mg/kg/injection, schedule: Q04DX002 (ip), vehicle: saline 108 % of control

O=C(NC1CCCCC1)c1ccc(Cl)cc1
inactive: [6] 105 % of control | [12] 94 % of control | [7] 89 % of control | [13] 105 % of control | [8] 105 % of control | [14] 102 % of control

O=C(O)C1CCCCC1C(=O)NCc1ccco1 (stereo not given)
inactive: [1] 95 % of control | [2] 96 % of control | [3] 88 % of control

O=C(O)CNC(=O)c1cccc(Cl)c1
inactive: dose: 100.0 mg/kg/injection, schedule: Q04DX002 (ip), vehicle: saline with Tween-80 95 % of control | dose: 200.0 mg/kg/injection, schedule: Q04DX002 (ip), vehicle: saline with Tween-80 95 % of control | dose: 400.0 mg/kg/injection, schedule: Q04DX002 (ip), vehicle: saline with Tween-80 95 % of control

CCOc1ccc([N+](=O)[O-])cn1
inactive: [1] 101 % of control | [12] 93 % of control | [2] 102 % of control | [13] 104 % of control | [3] 106 % of control | [14] 93 % of control

O=C1CCc2ccccc2C(=O)C1c1ccc(Cl)cc1 (stereo not given)
inactive: [15] 90 % of control | [16] 97 % of control | dose: 400.0 mg/kg/injection, schedule: Q04DX003 (ip), vehicle: saline with Tween-80 93 % of control

CCCCN(CCCC)C(=O)c1ccccc1C(=O)O
inactive: dose: 75.0 mg/kg/injection, schedule: Q01DX001 (ip), vehicle: saline 95 % of control | [9] 95 % of control | dose: 150.0 mg/kg/injection, schedule: Q01DX001 (ip), vehicle: saline 104 % of control | [10] 95 % of control | dose: 300.0 mg/kg/injection, schedule: Q01DX001 (ip), vehicle: saline 103 % of control

O=C(OC(c1c(Cl)cccc1Cl)c1nccc2ccccc12)c1ccccc1 (stereo not given)
inactive: dose: 100.0 mg/kg/injection, schedule: Q01DX001 (ip), vehicle: steriod suspending solution 95 % of control | dose: 200.0 mg/kg/injection, schedule: Q01DX001 (ip), vehicle: steriod suspending solution 97 % of control | dose: 400.0 mg/kg/injection, schedule: Q01DX001 (ip), vehicle: steriod suspending solution 88 % of control

Cc1ccc(CSC(=N)N)cc1C
inactive: dose: 25.0 mg/kg/injection, schedule: Q04DX002 (ip), vehicle: Klucel (hydroxypropylcellulose) (HPC) 98 % of control | dose: 50.0 mg/kg/injection, schedule: Q04DX002 (ip), vehicle: Klucel (hydroxypropylcellulose) (HPC) 103 % of control | [9] 101 % of control

O=S(=O)(/C(=C\c1ccccc1)c1ccccc1)C(Cl)c1ccccc1 (stereo not given)
inactive: [5] 96 % of control | [17] 110 % of control | [18] 95 % of control

COc1ccc(C2CC(O)C3CCC2C3)cc1 (stereo not given)
inactive: [9] 93 % of control | [10] 97 % of control | [11] 93 % of control

Cc1cc(NC(=O)c2cccc(S(=O)(=O)F)c2)cc(C)c1OCc1nc(N)nc(N)c1-c1ccc(Cl)c(Cl)c1
inactive: [19] 97 % of control | [20] 88 % of control | [21] 101 % of control

Cc1c(C)c(N)c(C)c(C)c1N
inactive: dose: 6.25 mg/kg/injection, schedule: Q01DX009 (ip), vehicle: Klucel (hydroxypropylcellulose) (HPC) 94 % of control | dose: 12.5 mg/kg/injection, schedule: Q01DX009 (ip), vehicle: Klucel (hydroxypropylcellulose) (HPC) 94 % of control | dose: 12.5 mg/kg/injection, schedule: Q04DX003 (ip), vehicle: Klucel (hydroxypropylcellulose) (HPC) 101 % of control

O=C1OC(=O)c2ccc(Sc3ccccn3)c3cccc1c23
inactive: dose: 100.0 mg/kg/injection, schedule: Q04DX003 (ip), vehicle: carboxymethylcellulose (CMC) 93 % of control | dose: 200.0 mg/kg/injection, schedule: Q04DX003 (ip), vehicle: carboxymethylcellulose (CMC) 88 % of control | dose: 400.0 mg/kg/injection, schedule: Q04DX003 (ip), vehicle: carboxymethylcellulose (CMC) 93 % of control

[O-]c1n[n+](C2CCCCC2)no1
inactive: dose: 5.0 mg/kg/injection, schedule: Q01DX001 (ip), vehicle: other 106 % of control | dose: 10.0 mg/kg/injection, schedule: Q01DX001 (ip), vehicle: other 101 % of control

O=C(Sc1cccc2ccccc12)c1ccc([N+](=O)[O-])cc1
inactive: [12] 95 % of control | [13] 97 % of control | [14] 95 % of control

C(COC1CC2CC1C1C2CC2OC21)OC1CC2CC1C1C2CC2OC21 (stereo not given)
inactive: dose: 50.0 mg/kg/injection, schedule: Q01DX001 (ip), vehicle: carboxymethylcellulose (CMC) 96 % of control | dose: 100.0 mg/kg/injection, schedule: Q01DX001 (ip), vehicle: carboxymethylcellulose (CMC) 98 % of control | dose: 200.0 mg/kg/injection, schedule: Q01DX001 (ip), vehicle: carboxymethylcellulose (CMC) 96 % of control | dose: 400.0 mg/kg/injection, schedule: Q01DX001 (ip), vehicle: carboxymethylcellulose (CMC) 102 % of control

Clc1ccc2nncn2n1
inactive: dose: 50.0 mg/kg/injection, schedule: Q04DX003 (ip), vehicle: saline with Tween-80 97 % of control | [15] 100 % of control | [16] 100 % of control

ICC1OC(c2ccccc2)OC2C(CI)OC(c3ccccc3)OC12 (stereo not given)
inactive: dose: 75.0 mg/kg/injection, schedule: Q01DX001 (ip), vehicle: carboxymethylcellulose (CMC) 95 % of control | dose: 150.0 mg/kg/injection, schedule: Q01DX001 (ip), vehicle: carboxymethylcellulose (CMC) 93 % of control | dose: 300.0 mg/kg/injection, schedule: Q01DX001 (ip), vehicle: carboxymethylcellulose (CMC) 88 % of control

COC(C)c1ccccc1 (stereo not given)
inactive: dose: 103.0 mg/kg/injection, schedule: Q01DX Z (ip), vehicle: methylcellulose (MC) 91 % of control | dose: 155.0 mg/kg/injection, schedule: Q01DX Z (ip), vehicle: methylcellulose (MC) 96 % of control | dose: 233.0 mg/kg/injection, schedule: Q01DX Z (ip), vehicle: methylcellulose (MC) 96 % of control | dose: 350.0 mg/kg/injection, schedule: Q01DX Z (ip), vehicle: methylcellulose (MC) 102 % of control

COc1cc2c3c(c1O)-c1c(ccc(OC)c1OC)CC3N(C)CC2 (stereo not given)
inactive: [19] 103 % of control | [20] 102 % of control | [21] 102 % of control

COc1ccc(Cl)cc1NC(=O)COc1cc(Cl)c(Cl)cc1Cl
inactive: dose: 50.0 mg/kg/injection, schedule: Q01DX009 (ip), vehicle: saline with Tween-80 101 % of control | dose: 100.0 mg/kg/injection, schedule: Q01DX009 (ip), vehicle: saline with Tween-80 96 % of control | dose: 200.0 mg/kg/injection, schedule: Q01DX009 (ip), vehicle: saline with Tween-80 104 % of control

CC(Cc1ccccc1)N(C)C(=O)CN1C(=O)c2ccccc2C1=O (stereo not given)
inactive: [4] 103 % of control | [5] 117 % of control | [17] 109 % of control | [18] 91 % of control
